Measurements: ChEMBL document CHEMBL1127123, “Justicidin E: A new leukotriene biosynthesis inhibitor” (Bioorg Med Chem Lett, 1993)

biological target: T1, Polyunsaturated fatty acid 5-lipoxygenase (Homo sapiens, UniProt P09917); experiment: In vitro inhibition of human recombinant 5-lipoxygenase enzyme
T1 sequence (P09917 whole entry): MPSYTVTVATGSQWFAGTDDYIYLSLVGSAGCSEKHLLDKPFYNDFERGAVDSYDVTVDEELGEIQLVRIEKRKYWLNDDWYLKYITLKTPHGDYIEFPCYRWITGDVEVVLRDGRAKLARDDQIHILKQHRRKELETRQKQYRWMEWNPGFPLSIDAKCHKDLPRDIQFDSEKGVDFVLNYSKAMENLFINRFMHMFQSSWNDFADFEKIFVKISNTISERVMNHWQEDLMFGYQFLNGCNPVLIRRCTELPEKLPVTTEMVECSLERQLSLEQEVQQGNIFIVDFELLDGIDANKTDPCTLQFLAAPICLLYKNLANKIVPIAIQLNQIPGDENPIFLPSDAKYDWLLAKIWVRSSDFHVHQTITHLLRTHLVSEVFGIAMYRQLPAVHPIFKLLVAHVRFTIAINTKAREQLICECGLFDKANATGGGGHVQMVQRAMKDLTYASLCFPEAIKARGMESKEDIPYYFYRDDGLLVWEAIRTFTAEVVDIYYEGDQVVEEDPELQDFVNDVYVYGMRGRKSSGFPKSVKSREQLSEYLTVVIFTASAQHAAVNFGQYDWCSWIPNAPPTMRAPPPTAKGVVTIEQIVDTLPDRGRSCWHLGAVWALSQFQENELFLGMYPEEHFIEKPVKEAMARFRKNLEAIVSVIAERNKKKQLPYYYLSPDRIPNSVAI

SMILES	IC50 [nM]
O=C1OCc2c1cc1cc3c(cc1c2-c1ccc2c(c1)OCO2)OCO3	500

biological target: T1, Polyunsaturated fatty acid 5-lipoxygenase; experiment: In vitro inhibition of human recombinant lipoxygenase enzyme

SMILES	IC50 [nM]
O=C1OCc2c1cc1cc(OCc3ccccc3)ccc1c2-c1ccccc1	3000

biological target: T1, Polyunsaturated fatty acid 5-lipoxygenase; experiment: In vitro inhibition of human recombinant lipoxygenase enzyme; No inhibition

SMILES	IC50
O=C1OCc2c1cc1cc(OCc3ccc(-c4ccccc4)cn3)ccc1c2-c1ccccc1	Not Active

biological target: T1, Polyunsaturated fatty acid 5-lipoxygenase; experiment: In vitro inhibition of LTB4 biosynthesis by human leukocytes; format: functional

SMILES	IC50 [nM]
O=C1OC(=O)c2c1cc1cc3c(cc1c2-c1ccc2c(c1)OCO2)OCO3	660
O=C1OCc2c1cc1ccccc1c2-c1ccncc1	> 4000
O=C1NCc2c1cc1cc3c(cc1c2-c1ccc2c(c1)OCO2)OCO3	4200
O=C1OCc2c1cc1ccccc1c2-c1ccc2c(c1)OCO2	380
O=C1OCc2cc3cc4c(cc3c(-c3ccc5c(c3)OCO5)c21)OCO4 [TAIWANIN C]	250
O=C1OCc2c1cc1ccccc1c2-c1ccccc1	250
COc1ccc(-c2c3c(cc4cc5c(cc24)OCO5)C(=O)OC3)cc1OC	> 5000
c1cc2c(cc1C1c3cocc3Cc3cc4c(cc31)OCO4)OCO2 (stereo unspecified)	420
COc1cc2cc3c(c(-c4ccc5c(c4)OCO5)c2cc1OC)COC3=O [RETROJUSTICIDIN B]	760
c1cc2c(cc1-c1c3c(cc4cc5c(cc14)OCO5)COC3)OCO2	230
COc1ccc2cc3c(c(-c4ccccc4)c2c1)COC3=O	670
O=C1OCc2c1cc1sccc1c2-c1ccccc1	450
OCc1cc2cc3c(cc2c(-c2ccc4c(c2)OCO4)c1CO)OCO3	2200
O=C1OCc2c1cc1ccncc1c2-c1ccccc1	3800
COc1ccc(-c2c3c(cc4ccccc24)C(=O)OC3)cc1	1400
Cc1cc2cc3c(cc2c(-c2ccc4c(c2)OCO4)c1C)OCO3	250

Molecules with a lower IC50, results first:

IC50 [nM]	SMILES
42	COc1cccc(-c2c3c(cc4ccccc24)C(=O)OC3)c1
22	O=C1OCc2c1cc1cc(OCc3ccc(-c4ccccc4)cn3)ccc1c2-c1ccccc1
88	O=C1OCc2c1cc1cc(OCc3ccc4ccccc4n3)ccc1c2-c1ccccc1
180	COc1ccc2c(-c3ccccc3)c3c(cc2c1)C(=O)OC3
70	O=C1OCc2c1cc1cc3c(cc1c2-c1ccc2c(c1)OCO2)OCO3
100	O=C1OCc2c1cc1cc(OCc3ccccc3)ccc1c2-c1ccccc1
160	O=C1OCc2c1cc1cc3c(cc1c2-c1ccccc1)OCO3
